Patent publication US4011332A, “Hemorrhagic-lesion producing and anticoagulant-containing compositions and their use” (priority 1974, dated 1977)
Read-outs that look alike come from different tables or passages of the source.

Experiments:
Sprague-Dawley rats [1] = assay: LD5 determination / hemorrhagic stomach and gut lesions after single oral dose; conditions: for LD5: single oral dose, Sprague-Dawley rats, empty stomach; for LD5 (criterion for rat strain to be used): rat strain advisable for the test
Protocol: A selection of compounds from those suitable for component (b) is, however, made in a simpler manner by determining the LD5 (in mg/kg). […] Determination of the cause of death is effected, e.g., by autopsy of the dead animals.
The rats were kept in groups of 5 and four animals in plastic cages of the type M III. The room temperature was maintained at approximately 23° C. For determining the lethal doses, as mentioned in the following description, the rats were fed on empty stomachs. The animals received the noted compounds [for example, component (a) or (b) or the composition containing both] in a volume of liquid amounting to 5 ml per kg of body weight of the rat. The administration of the liquid was carried out once using a feeding tube introduced into the oesophagus. The doses of the active substances [component (a), component (b) or the composition] were varied. Component (b) was administered as a sodium salt in aqueous solution, and the number of animals which died within 10 days after administration was noted.
The lethal doses (LD5, LD50 and LD100 in mg/kg) were determined by simple linear regression, while the limits of trust were determined by the method of Litchfield and Wilcoxon.
Thereafter autopsy the dead animals to determine the cause of death.

Sprague-Dawley rats [2] = conditions: for LD50 oral, in combination with component (b) 1 mg/kg: with 1 mg/kg 1-phenyl-3,5-di-(2-thienyl)-4-pyrazole acetic acid; for LD50 oral, in combination with component (b) 2 mg/kg: with 2 mg/kg 1-phenyl-3,5-di-(2-thienyl)-4-pyrazole acetic acid
Protocol: *Ingestion volume: 5 ml/kg, period of observation: 10 days

[3] = system: female Sprague-Dawley rats; assay: Rodenticidal bait test, mortality in 10 days (Example 12, Table IV); format: in vivo; conditions: one day, 10 days observation
From the text: Following the rules for the examination of rodenticides against rats and mice (edited by Bundesgeshundheitsamt, Institut fuer Wasser-, Boden- und Lufthygiene, Biologische Bundesanstalt fur Land- und Forstwirtschaft, Staatliches Medizinaluntersuchungsamt, Abt. fuer hygienische Schadlingsbekampfung), female Sprague-Dawley rats weighing about 200 grams, kept in single boxes, were provided with the rodenticidal active substances* alone or in combination (expressed in mg/kg) in 4 grams of bait per rat, i.e. 20 g of bait/kg of body weight. These soft consistent, i.e. not crumbly, baits were prepared from Semmelmehl (i.e. powder prepared by grinding dry white bread) and some water. The rats on an empty stomach were provided with these baits as the only food during one day, tap water was ad libitum.
* 4-hydroxy-2-oxo-3-(3-oxo-1-phenyl-butyl)-2H-chromene and 1,5-diphenyl-3-(p-chlorophenyl)-4-pyrazole acetic acid
Thereafter, the animals were provided with usual standard diet Atromine R for the remaining duration of the test.
The mortality rate was determined during a test period of 10 days.

Sprague-Dawley rats [4] = assay: animal or person; format: in vivo; conditions: for LD100 (interpolated): component (b) with 2 mg/kg 4-hydroxy-2-oxo-3-(1-phenylpropyl)-2H-chromene, single oral dose, 10 days
From the text: Note the number of animals which die within 10 days of the respective administrations.

[5] = system: wild rats (Rattus norvegicus and Rattus ratus); assay: LD100 of combinations in wild rats, single oral dose (Example 3); format: in vivo; conditions: full stomachs, 10 days
[6] = alone, 5 ml/kg, observation 10 days

SMILES | LD5 (Sprague-Dawley rats [1]) | LD100 (interpolated) (Sprague-Dawley rats [4]) | further results
CN1C(O)=C(C(=O)Nc2ccc([N+](=O)[O-])cc2)c2ccccc2S1(=O)=O [R, n-(4-nitrophenyl)-3-hydroxy-2-methyl-2H-1,2-benzothiazine-4-carboxamide-1,1-dioxide] | < 50 mg/kg of body weight | – | –
CC(=O)CC(c1ccccc1)c1c(O)c2ccccc2oc1=O (stereo not drawn) [Component 1.2, 4-hydroxy-2-oxo-3-(3-oxo-1-phenylbutyl)-2H-chromene] | – | – | LD50 oral, alone (Sprague-Dawley rats [2]; rat, in vivo, po, 240 h): 7.0 mg/kg of body weight; LD50 oral, in combination with component (b) 1 mg/kg (Sprague-Dawley rats [2]; 5 ml/kg, observation 10 days): 4 mg/kg of body weight; LD50 oral, in combination with component (b) 2 mg/kg (Sprague-Dawley rats [2]; 5 ml/kg, observation 10 days): 0.4 mg/kg of body weight; % of Animals which Died ([3]; Component 1.2 100 mg/kg in bait): 80%; % of Animals which Died ([3]; Component 1.2 200 mg/kg in bait): 80%
CC(=O)Oc1ccccc1C(=O)O [K, acetylsalicylic acid, reference compound] | above 100 mg/kg of body weight | – | –
COc1ccc(-c2c(CC(=O)O)c(-c3ccccc3)nn2-c2ccccc2)cc1 [G, 1,3-diphenyl-5-(p-methoxyphenyl)-4-pyrazole acetic acid] | < 15 mg/kg of body weight | ~ 10.0 mg/kg | –
O=C(O)Cc1c(C2CCCCC2)nn(-c2ccccc2)c1-c1ccccc1 [F, 3-cyclohexyl-1,5-diphenyl-4-pyrazole acetic acid] | < 15 mg/kg of body weight | 7.5 mg/kg | –
O=C(O)Cc1c(-c2ccccc2)nn(-c2ccccc2)c1-c1ccccc1 [C, 1,3,5-triphenyl-4-pyrazole acetic acid] | < 5 mg/kg of body weight | 3.0 mg/kg | –
O=C(O)Cc1c(-c2cccs2)nn(-c2ccccc2)c1-c1cccs1 [A, 1-phenyl-3,5-di-(2-thienyl)-4-pyrazole acetic acid] | < 5 mg/kg of body weight | ~ 2.0 mg/kg | LD100, component (b) ([5]; component (a) 0 mg/kg): 7 mg/kg of rat body weight; LD100, component (b) in combination ([5]; with component (a) 2 mg/kg): 3 mg/kg of rat body weight; LD100, component (b) in combination ([5]; with component (a) 3 mg/kg): 2 mg/kg of rat body weight; LD100, component (b) in combination ([5]; with component (a) 4 mg/kg): 1.5 mg/kg of rat body weight
O=C1c2ccccc2C(=O)C1c1ccccc1 [2-phenylindandione-(1,3)] | – | – | LD50 oral, alone (Sprague-Dawley rats [2]; [6]): above 100 mg/kg of body weight; LD50 oral, in combination with component (b) 2 mg/kg (Sprague-Dawley rats [2]; 5 ml/kg, observation 10 days): not less than 50 mg/kg of body weight
O=C(O)Cc1c(-c2ccco2)nn(-c2ccccc2)c1-c1ccco1 [O, 1-phenyl-3,5-di-(2-furyl)-4-pyrazole acetic acid] | < 50 mg/kg of body weight | ~ 50 mg/kg | –
CN1C(=O)C(C(=O)Nc2ccc(F)cc2F)c2ccccc21 (stereo not drawn) [P, 1-methyl-2',4'-difluoroxindole-3-carboxanilide] | < 50 mg/kg of body weight | – | –
CC(C(=O)O)c1ccc(C2CCCCC2)c(Cl)c1 (single isomer, unassigned) [N, d(+)-3-chloro-4-cyclohexyl-α-methyl-phenylacetic acid] | < 15 mg/kg of body weight | 5 to 10 mg/kg | –
O=C(O)Cc1c(-c2ccc(Cl)cc2)nn(-c2ccccc2)c1-c1ccccc1 [B, 1,5-diphenyl-3-(p-chlorophenyl)-4-pyrazole acetic acid] | < 5 mg/kg of body weight | 1.5 mg/kg | –
CN1C(O)=C(C(=O)Nc2ccc(Br)cc2)c2ccccc2S1(=O)=O [Q, n-(4-bromophenyl)-3-hydroxy-2-methyl-2H-1,2-benzothiazine-4-carboxamide-1,1-dioxide] | < 50 mg/kg of body weight | – | –
O=C(O)c1ccccc1O [I, salicylic acid, reference compound] | above 100 mg/kg of body weight | – | –
CC(=O)CC(c1ccc([N+](=O)[O-])cc1)c1c(O)c2ccccc2oc1=O (stereo not drawn) [Component 1.6, 4-hydroxy-2-oxo-3-[3-oxo-1-(4-nitrophenyl)butyl]-2H-chromene] | – | – | LD50 oral, alone (Sprague-Dawley rats [2]; [6]): above 100 mg/kg of body weight; LD50 oral, in combination with component (b) 2 mg/kg (Sprague-Dawley rats [2]; 5 ml/kg, observation 10 days): 1.3 mg/kg of body weight
O=C(O)Cc1c(-c2cccs2)nn(-c2ccccc2Cl)c1-c1cccs1 [M, 1(o-chlorophenyl)-3,5-(2-thienyl)-4-pyrazole acetic acid] | < 15 mg/kg of body weight | 10 to 50 mg/kg | –
COc1ccc(-n2nc(-c3ccccc3)c(CC(=O)O)c2-c2ccccc2)cc1 [H, 3,5-diphenyl-1-(p-methoxyphenyl)-4-pyrazole acetic acid] | < 15 mg/kg of body weight | ~ 10.00 mg/kg | –
COc1ccc2c(c1)c(CC(=O)O)c(C)n2C(=O)c1ccc(Cl)cc1 [E, reference compound] | < 15 mg/kg of body weight | 7.5 mg/kg | LD5 (criterion for rat strain to be used) (Sprague-Dawley rats [1]): approximately 7 mg/kg of body weight
CCC(c1ccccc1)c1c(O)c2ccccc2oc1=O (stereo not drawn) [Component 1.1, 4-hydroxy-2-oxo-3-(1-phenylpropyl)-2H-chromene, reference compound] | – | – | LD50 oral, alone (Sprague-Dawley rats [2]; [6]): 3.0 mg/kg of body weight; LD50 oral, in combination with component (b) 1 mg/kg (Sprague-Dawley rats [2]; 5 ml/kg, observation 10 days): 1.7 mg/kg of body weight; LD50 oral, in combination with component (b) 2 mg/kg (Sprague-Dawley rats [2]; 5 ml/kg, observation 10 days): 0.55 mg/kg of body weight; LD100 ([5]; Rattus norvegicus, 240 h, component (b) 0 mg/kg): 45 mg/kg; LD100, component (a) in combination ([5]; with component (b) 1.5 mg/kg): 4 mg/kg of rat body weight; LD100, component (a) in combination ([5]; with component (b) 2 mg/kg): 3 mg/kg of rat body weight; LD100, component (a) in combination ([5]; with component (b) 3 mg/kg): 2 mg/kg of rat body weight; LD100 (Sprague-Dawley rats [4]; Rattus norvegicus, po, 240 h, anticoagulant alone, Sprague-Dawley rats): 17 mg/kg
O=C(O)Cc1c(-c2cccs2)nn(-c2ccc(Cl)cc2)c1-c1cccs1 [D, 1-(p-chlorophenyl)-3,5-di-(2-thienyl)-4-pyrazole acetic acid] | < 5 mg/kg of body weight | 5.0 mg/kg | –
CC(C)(C)C(=O)C1C(=O)c2ccccc2C1=O [Component 1.4, 2-pivaloyl-1,3-indandione] | – | – | LD50 oral, alone (Sprague-Dawley rats [2]; [6]): above 5 mg/kg of body weight; LD50 oral, in combination with component (b) 2 mg/kg (Sprague-Dawley rats [2]; 5 ml/kg, observation 10 days): above 1 mg/kg of body weight
CN1C(C(=O)Nc2nccs2)=C(O)c2ccccc2S1(=O)=O [L, n-(2-thiazolyl)-4-hydroxy-2-methyl-2H-1,2-benzothiazine-3-carboxamide-1,1-dioxide] | < 50 mg/kg of body weight | ≤ 20.00 mg/kg | –
CCCCC1C(=O)N(c2ccccc2)N(c2ccccc2)C1=O [phenylbutazone, reference compound] | – | – | LD5 (criterion for rat strain to be used) (Sprague-Dawley rats [1]): 600 mg/kg of body weight
